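Step 1: Grow cells in 96-well plates. Step 2: Expose to compound for 48 hours at 5 concentrations. Step 3: Interpolate endpoints linearly; if unreached, use highest concentration. Definition used: TGI = concentration required for complete inhibition of growth.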
Tests used:
Experiment in all cases: NCI-60 cell line screen, 48 h
HCT-116 colon = tested on: HCT-116 colon
UO-31 renal = tested on: UO-31 renal
K-562 leukemia = tested on: K-562 leukemia
SW-620 colon = tested on: SW-620 colon
HS 578T breast = tested on: HS 578T breast
OVCAR-3 ovarian = tested on: OVCAR-3 ovarian
DU-145 prostate = tested on: DU-145 prostate
OVCAR-5 ovarian = tested on: OVCAR-5 ovarian
RXF 393 renal = tested on: RXF 393 renal
786-0 renal = tested on: 786-0 renal
ACHN renal = tested on: ACHN renal
HOP-92 NSCLC = tested on: HOP-92 NSCLC
LOX IMVI melanoma = tested on: LOX IMVI melanoma
SK-OV-3 ovarian = tested on: SK-OV-3 ovarian
MDA-MB-231 breast = tested on: MDA-MB-231 breast
NCI-H522 lung = tested on: NCI-H522 lung
HL-60(TB) leukemia = tested on: HL-60(TB) leukemia
UACC-62 melanoma = tested on: UACC-62 melanoma
NCI-H226 lung = tested on: NCI-H226 lung
IGROV1 ovarian = tested on: IGROV1 ovarian
MCF7 breast = tested on: MCF7 breast
KM12 colon = tested on: KM12 colon
SNB-19 CNS = tested on: SNB-19 CNS
RPMI-8226 leukemia = tested on: RPMI-8226 leukemia
MDA-N = tested on: MDA-N
T-47D breast = tested on: T-47D breast
SK-MEL-28 melanoma = tested on: SK-MEL-28 melanoma
MOLT-4 leukemia = tested on: MOLT-4 leukemia
M14 melanoma = tested on: M14 melanoma
A549 NSCLC = tested on: A549 NSCLC
NCI-H460 lung = tested on: NCI-H460 lung
MALME-3M melanoma = tested on: MALME-3M melanoma
SF-268 CNS = tested on: SF-268 CNS
SF-539 CNS = tested on: SF-539 CNS
NCI-H23 lung = tested on: NCI-H23 lung
MDA-MB-435 = tested on: MDA-MB-435
OVCAR-8 ovarian = tested on: OVCAR-8 ovarian
COLO 205 colon = tested on: COLO 205 colon
SF-295 CNS = tested on: SF-295 CNS
U251 CNS = tested on: U251 CNS
TK-10 renal = tested on: TK-10 renal
SK-MEL-5 melanoma = tested on: SK-MEL-5 melanoma
SK-MEL-2 melanoma = tested on: SK-MEL-2 melanoma
UACC-257 melanoma = tested on: UACC-257 melanoma
OVCAR-4 ovarian = tested on: OVCAR-4 ovarian
SN12C renal = tested on: SN12C renal
EKVX NSCLC = tested on: EKVX NSCLC
HT29 colon = tested on: HT29 colon
SR leukemia = tested on: SR leukemia
HCC-2998 colon = tested on: HCC-2998 colon
HCT-15 colon = tested on: HCT-15 colon
HOP-62 NSCLC = tested on: HOP-62 NSCLC
PC-3 prostate = tested on: PC-3 prostate
NCI/ADR-RES ovarian = tested on: NCI/ADR-RES ovarian
A498 renal = tested on: A498 renal
CAKI-1 renal = tested on: CAKI-1 renal
BT-549 breast = tested on: BT-549 breast
CCRF-CEM leukemia = tested on: CCRF-CEM leukemia
SNB-75 CNS = tested on: SNB-75 CNS

## C[C@@H]1C[C@@H](O)[C@@]2(O)C13CC(=O)OC(C3)[C@@H](C)[C@@]2(C)CO (some centres undefined)
HCT-116 colon
  TGI: > 100 µM
UO-31 renal
  TGI: > 100 µM
K-562 leukemia
  TGI: > 100 µM
SW-620 colon
  TGI: > 100 µM
HS 578T breast
  TGI: > 100 µM
OVCAR-3 ovarian
  TGI: > 100 µM
DU-145 prostate
  TGI: > 100 µM
OVCAR-5 ovarian
  TGI: > 100 µM
RXF 393 renal
  TGI: > 100 µM
786-0 renal
  TGI: > 100 µM
ACHN renal
  TGI: > 100 µM
HOP-92 NSCLC
  TGI: > 100 µM
LOX IMVI melanoma
  TGI: > 100 µM
SK-OV-3 ovarian
  TGI: > 100 µM
MDA-MB-231 breast
  TGI: > 100 µM
NCI-H522 lung
  TGI: > 100 µM
HL-60(TB) leukemia
  TGI: > 100 µM
UACC-62 melanoma
  TGI: > 100 µM
NCI-H226 lung
  TGI: > 100 µM
IGROV1 ovarian
  TGI: > 100 µM
MCF7 breast
  TGI: > 100 µM
KM12 colon
  TGI: > 100 µM
SNB-19 CNS
  TGI: > 100 µM
RPMI-8226 leukemia
  TGI: > 100 µM
MDA-N
  TGI: > 100 µM
T-47D breast
  TGI: > 100 µM
SK-MEL-28 melanoma
  TGI: > 100 µM
MOLT-4 leukemia
  TGI: > 100 µM
M14 melanoma
  TGI: > 100 µM
A549 NSCLC
  TGI: > 100 µM
NCI-H460 lung
  TGI: > 100 µM
MALME-3M melanoma
  TGI: > 100 µM
SF-268 CNS
  TGI: > 100 µM
SF-539 CNS
  TGI: > 100 µM
NCI-H23 lung
  TGI: > 100 µM
MDA-MB-435
  TGI: > 100 µM
OVCAR-8 ovarian
  TGI: > 100 µM
COLO 205 colon
  TGI: > 100 µM
SF-295 CNS
  TGI: > 100 µM
U251 CNS
  TGI: > 100 µM
TK-10 renal
  TGI: > 100 µM
SK-MEL-5 melanoma
  TGI: > 100 µM
SK-MEL-2 melanoma
  TGI: > 100 µM
UACC-257 melanoma
  TGI: > 100 µM
OVCAR-4 ovarian
  TGI: > 100 µM
SN12C renal
  TGI: > 100 µM
EKVX NSCLC
  TGI: > 100 µM
HT29 colon
  TGI: > 100 µM
SR leukemia
  TGI: > 100 µM
HCC-2998 colon
  TGI: > 100 µM
HCT-15 colon
  TGI: > 100 µM
HOP-62 NSCLC
  TGI: > 100 µM
PC-3 prostate
  TGI: > 100 µM
NCI/ADR-RES ovarian
  TGI: > 100 µM
A498 renal
  TGI: > 100 µM

## CCCCSC1=N/C(=C\c2ccco2)C(=O)N1
HCT-116 colon
  TGI: > 100 µM
UO-31 renal
  TGI: > 100 µM
SW-620 colon
  TGI: > 100 µM
HS 578T breast
  TGI: 88.3 µM
OVCAR-3 ovarian
  TGI: > 100 µM
DU-145 prostate
  TGI: > 100 µM
OVCAR-5 ovarian
  TGI: > 100 µM
RXF 393 renal
  TGI: 64.7 µM
786-0 renal
  TGI: > 100 µM
ACHN renal
  TGI: > 100 µM
SK-OV-3 ovarian
  TGI: > 100 µM
MDA-MB-231 breast
  TGI: > 100 µM
CAKI-1 renal
  TGI: > 100 µM
NCI-H522 lung
  TGI: > 100 µM
HL-60(TB) leukemia
  TGI: > 100 µM
UACC-62 melanoma
  TGI: > 100 µM
NCI-H226 lung
  TGI: > 100 µM
BT-549 breast
  TGI: > 100 µM
IGROV1 ovarian
  TGI: > 100 µM
MCF7 breast
  TGI: > 100 µM
KM12 colon
  TGI: > 100 µM
SNB-19 CNS
  TGI: > 100 µM
RPMI-8226 leukemia
  TGI: > 100 µM
MDA-N
  TGI: > 100 µM
T-47D breast
  TGI: > 100 µM
SK-MEL-28 melanoma
  TGI: > 100 µM
MOLT-4 leukemia
  TGI: > 100 µM
M14 melanoma
  TGI: > 100 µM
A549 NSCLC
  TGI: > 100 µM
NCI-H460 lung
  TGI: > 100 µM
MALME-3M melanoma
  TGI: > 100 µM
SF-268 CNS
  TGI: > 100 µM
NCI-H23 lung
  TGI: > 100 µM
MDA-MB-435
  TGI: > 100 µM
OVCAR-8 ovarian
  TGI: > 100 µM
COLO 205 colon
  TGI: > 100 µM
SF-295 CNS
  TGI: > 100 µM
CCRF-CEM leukemia
  TGI: > 100 µM
U251 CNS
  TGI: > 100 µM
TK-10 renal
  TGI: > 100 µM
SNB-75 CNS
  TGI: > 100 µM
SK-MEL-5 melanoma
  TGI: > 100 µM
SK-MEL-2 melanoma
  TGI: > 100 µM
UACC-257 melanoma
  TGI: > 100 µM
OVCAR-4 ovarian
  TGI: > 100 µM
SN12C renal
  TGI: > 100 µM
EKVX NSCLC
  TGI: > 100 µM
HT29 colon
  TGI: > 100 µM
HCC-2998 colon
  TGI: > 100 µM
HCT-15 colon
  TGI: > 100 µM
HOP-62 NSCLC
  TGI: > 100 µM
PC-3 prostate
  TGI: > 100 µM
NCI/ADR-RES ovarian
  TGI: > 100 µM
A498 renal
  TGI: > 100 µM

— PubChem BioAssay (NCI)
